Results reported in US12715849B2, “Herbicidal tetrazole compounds” (SYNGENTA CROP PROTECTION AG, priority 2020, dated 2026).

Experiments:
Test in all cases: Glasshouse herbicidal test, pre- and post-emergence (Table B1)
Assay type in all cases: in vivo
[1] = tested on: Amaranthus palmeri (AMAPA); settings: 130 g/h, evaluated after 13 days; for percentage damage caused to the plant, POST Application AMAPA: post-emergence; for percentage damage caused to the plant, PRE Application AMAPA: pre-emergence
Description: (§1) Seeds of a variety of test species are sown in standard soil in pots (Lolium perenne (LOLPE), Amaranthus retoflexus (AMARE), Amaranthus palmeri (AMAPA), Ablution theophrasti (ABUTH), Setaria faberi (SETFA), Echinochloa crus-galli (ECHCG), Ipomoea hederacea (IPOHE)). After cultivation for one day (pre-emergence) or after 8 days cultivation (post-emergence) under controlled conditions in a glasshouse (at 24/16° C., day/night; 14 hours light; 65% humidity), the plants are sprayed with an aqueous spray solution derived from the formulation of the technical active ingredient in acetone/water (50:50) solution containing 0.5% Tween 20 (polyoxyethelyene sorbitan monolaurate, CAS RN 9005-64-5). Compounds are applied at 130 g/h unless otherwise indicated. The test plants are then grown in a glasshouse under controlled conditions in a glasshouse (at 24/16° C., day/night; 14 hours light; 65% humidity) and watered twice daily. After 13 days for pre and post-emergence, the test is evaluated for the percentage damage caused to the plant. The biological activities are shown in the following table on a five-point scale (5=80-100%; 4=60-79%; 3=40-59%; 2=20-39%; 1=0-19%).

[2] = tested on: Echinochloa crus-galli (ECHCG); settings: 130 g/h, evaluated after 13 days; for percentage damage caused to the plant, POST Application ECHCG: post-emergence; for percentage damage caused to the plant, PRE Application ECHCG: pre-emergence
Description: as §1

Setaria faberi (SETFA) = settings: 130 g/h, evaluated after 13 days; for percentage damage caused to the plant, POST Application SETFA: post-emergence; for percentage damage caused to the plant, PRE Application SETFA: pre-emergence
Description: as §1

[3] = tested on: Amaranthus retoflexus (AMARE); settings: 130 g/h, evaluated after 13 days; for percentage damage caused to the plant, POST Application AMARE: post-emergence; for percentage damage caused to the plant, PRE Application AMARE: pre-emergence
Description: as §1

[4] = tested on: Ipomoea hederacea (IPOHE); settings: 130 g/h, evaluated after 13 days; for percentage damage caused to the plant, POST Application IPOHE: post-emergence; for percentage damage caused to the plant, PRE Application IPOHE: pre-emergence
Description: as §1

## COCCS(=O)(=O)Nc1c(OC(F)F)ccc(C(=O)Nc2nnnn2C)c1Cl [Compound 1.014]
[1]
  percentage damage caused to the plant, POST Application AMAPA: 5 (5=80-100%)
  percentage damage caused to the plant, PRE Application AMAPA: 5 (5=80-100%)
[2]
  percentage damage caused to the plant, POST Application ECHCG: 4 (4=60-79%)
  percentage damage caused to the plant, PRE Application ECHCG: 1 (1=0-19%)
Setaria faberi (SETFA)
  percentage damage caused to the plant, POST Application SETFA: 4 (4=60-79%)
  percentage damage caused to the plant, PRE Application SETFA: 1 (1=0-19%)
[3]
  percentage damage caused to the plant, POST Application AMARE: 5 (5=80-100%)
  percentage damage caused to the plant, PRE Application AMARE: 3 (3=40-59%)
[4]
  percentage damage caused to the plant, POST Application IPOHE: 3 (3=40-59%)
  percentage damage caused to the plant, PRE Application IPOHE: 1 (1=0-19%)

## COCCS(=O)(=O)Nc1c(OC(F)(F)F)ccc(C(=O)Nc2nnnn2C)c1Cl [Compound 1.054]
[1]
  percentage damage caused to the plant, POST Application AMAPA: 5 (5=80-100%)
  percentage damage caused to the plant, PRE Application AMAPA: 5 (5=80-100%)
[2]
  percentage damage caused to the plant, POST Application ECHCG: 5 (5=80-100%)
  percentage damage caused to the plant, PRE Application ECHCG: 1 (1=0-19%)
Setaria faberi (SETFA)
  percentage damage caused to the plant, POST Application SETFA: 4 (4=60-79%)
  percentage damage caused to the plant, PRE Application SETFA: 1 (1=0-19%)
[3]
  percentage damage caused to the plant, POST Application AMARE: 5 (5=80-100%)
  percentage damage caused to the plant, PRE Application AMARE: 5 (5=80-100%)
[4]
  percentage damage caused to the plant, POST Application IPOHE: 4 (4=60-79%)
  percentage damage caused to the plant, PRE Application IPOHE: 3 (3=40-59%)

## Cn1nnnc1NC(=O)c1ccc(OC(F)(F)F)c(NS(=O)(=O)CC2CC2)c1Cl [Compound 1.056]
[1]
  percentage damage caused to the plant, POST Application AMAPA: 5 (5=80-100%)
  percentage damage caused to the plant, PRE Application AMAPA: 5 (5=80-100%)
[2]
  percentage damage caused to the plant, POST Application ECHCG: 5 (5=80-100%)
  percentage damage caused to the plant, PRE Application ECHCG: 5 (5=80-100%)
Setaria faberi (SETFA)
  percentage damage caused to the plant, POST Application SETFA: 5 (5=80-100%)
  percentage damage caused to the plant, PRE Application SETFA: 5 (5=80-100%)
[3]
  percentage damage caused to the plant, POST Application AMARE: 5 (5=80-100%)
  percentage damage caused to the plant, PRE Application AMARE: 5 (5=80-100%)
[4]
  percentage damage caused to the plant, POST Application IPOHE: 5 (5=80-100%)
  percentage damage caused to the plant, PRE Application IPOHE: 5 (5=80-100%)

## CCCS(=O)(=O)Nc1c(OC(F)F)ccc(C(=O)Nc2nnnn2C)c1Cl [Compound 1.069]
[1]
  percentage damage caused to the plant, POST Application AMAPA: 5 (5=80-100%)
  percentage damage caused to the plant, PRE Application AMAPA: 5 (5=80-100%)
[2]
  percentage damage caused to the plant, POST Application ECHCG: 5 (5=80-100%)
  percentage damage caused to the plant, PRE Application ECHCG: 5 (5=80-100%)
Setaria faberi (SETFA)
  percentage damage caused to the plant, POST Application SETFA: 5 (5=80-100%)
  percentage damage caused to the plant, PRE Application SETFA: 4 (4=60-79%)
[3]
  percentage damage caused to the plant, POST Application AMARE: 5 (5=80-100%)
  percentage damage caused to the plant, PRE Application AMARE: 5 (5=80-100%)
[4]
  percentage damage caused to the plant, POST Application IPOHE: 5 (5=80-100%)
  percentage damage caused to the plant, PRE Application IPOHE: 4 (4=60-79%)

## CC(C)CS(=O)(=O)Nc1c(OC(F)F)ccc(C(=O)Nc2nnnn2C)c1Cl [Compound 1.070]
[1]
  percentage damage caused to the plant, POST Application AMAPA: 5 (5=80-100%)
  percentage damage caused to the plant, PRE Application AMAPA: 4 (4=60-79%)
[2]
  percentage damage caused to the plant, POST Application ECHCG: 4 (4=60-79%)
  percentage damage caused to the plant, PRE Application ECHCG: 3 (3=40-59%)
Setaria faberi (SETFA)
  percentage damage caused to the plant, POST Application SETFA: 4 (4=60-79%)
  percentage damage caused to the plant, PRE Application SETFA: 3 (3=40-59%)
[3]
  percentage damage caused to the plant, POST Application AMARE: 5 (5=80-100%)
  percentage damage caused to the plant, PRE Application AMARE: 4 (4=60-79%)
[4]
  percentage damage caused to the plant, POST Application IPOHE: 4 (4=60-79%)
  percentage damage caused to the plant, PRE Application IPOHE: 2 (2=20-39%)

## CN(c1c(OC(F)F)ccc(C(=O)Nc2nnnn2C)c1Cl)S(C)(=O)=O [Compound 1.071]
[1]
  percentage damage caused to the plant, POST Application AMAPA: 5 (5=80-100%)
  percentage damage caused to the plant, PRE Application AMAPA: 5 (5=80-100%)
[2]
  percentage damage caused to the plant, POST Application ECHCG: 5 (5=80-100%)
  percentage damage caused to the plant, PRE Application ECHCG: 5 (5=80-100%)
Setaria faberi (SETFA)
  percentage damage caused to the plant, POST Application SETFA: 5 (5=80-100%)
  percentage damage caused to the plant, PRE Application SETFA: 5 (5=80-100%)
[3]
  percentage damage caused to the plant, POST Application AMARE: 5 (5=80-100%)
  percentage damage caused to the plant, PRE Application AMARE: 5 (5=80-100%)
[4]
  percentage damage caused to the plant, POST Application IPOHE: 4 (4=60-79%)
  percentage damage caused to the plant, PRE Application IPOHE: 3 (3=40-59%)

## CCCS(=O)(=O)Nc1c(OC(F)(F)F)ccc(C(=O)Nc2nnnn2C)c1Cl [Compound 1.072]
[1]
  percentage damage caused to the plant, POST Application AMAPA: 5 (5=80-100%)
  percentage damage caused to the plant, PRE Application AMAPA: 5 (5=80-100%)
[2]
  percentage damage caused to the plant, PRE Application ECHCG: 5 (5=80-100%)
Setaria faberi (SETFA)
  percentage damage caused to the plant, POST Application SETFA: 5 (5=80-100%)
  percentage damage caused to the plant, PRE Application SETFA: 5 (5=80-100%)
[3]
  percentage damage caused to the plant, POST Application AMARE: 5 (5=80-100%)
  percentage damage caused to the plant, PRE Application AMARE: 5 (5=80-100%)
[4]
  percentage damage caused to the plant, POST Application IPOHE: 5 (5=80-100%)
  percentage damage caused to the plant, PRE Application IPOHE: 5 (5=80-100%)

## Cn1nnnc1NC(=O)c1ccc(OC(F)(F)F)c(NS(=O)(=O)C2CC2)c1Cl [Compound 1.073]
[1]
  percentage damage caused to the plant, POST Application AMAPA: 5 (5=80-100%)
  percentage damage caused to the plant, PRE Application AMAPA: 5 (5=80-100%)
[2]
  percentage damage caused to the plant, POST Application ECHCG: 5 (5=80-100%)
  percentage damage caused to the plant, PRE Application ECHCG: 5 (5=80-100%)
Setaria faberi (SETFA)
  percentage damage caused to the plant, POST Application SETFA: 5 (5=80-100%)
  percentage damage caused to the plant, PRE Application SETFA: 5 (5=80-100%)
[3]
  percentage damage caused to the plant, POST Application AMARE: 5 (5=80-100%)
  percentage damage caused to the plant, PRE Application AMARE: 5 (5=80-100%)
[4]
  percentage damage caused to the plant, POST Application IPOHE: 5 (5=80-100%)
  percentage damage caused to the plant, PRE Application IPOHE: 5 (5=80-100%)

## CC(C)CS(=O)(=O)Nc1c(OC(F)(F)F)ccc(C(=O)Nc2nnnn2C)c1Cl [Compound 1.074]
[1]
  percentage damage caused to the plant, POST Application AMAPA: 5 (5=80-100%)
  percentage damage caused to the plant, PRE Application AMAPA: 5 (5=80-100%)
[2]
  percentage damage caused to the plant, POST Application ECHCG: 5 (5=80-100%)
  percentage damage caused to the plant, PRE Application ECHCG: 4 (4=60-79%)
Setaria faberi (SETFA)
  percentage damage caused to the plant, POST Application SETFA: 5 (5=80-100%)
  percentage damage caused to the plant, PRE Application SETFA: 3 (3=40-59%)
[3]
  percentage damage caused to the plant, POST Application AMARE: 5 (5=80-100%)
  percentage damage caused to the plant, PRE Application AMARE: 5 (5=80-100%)
[4]
  percentage damage caused to the plant, POST Application IPOHE: 5 (5=80-100%)
  percentage damage caused to the plant, PRE Application IPOHE: 3 (3=40-59%)

## CC(C)S(=O)(=O)Nc1c(OC(F)(F)F)ccc(C(=O)Nc2nnnn2C)c1Cl [Compound 1.076]
[1]
  percentage damage caused to the plant, POST Application AMAPA: 5 (5=80-100%)
  percentage damage caused to the plant, PRE Application AMAPA: 5 (5=80-100%)
[2]
  percentage damage caused to the plant, PRE Application ECHCG: 5 (5=80-100%)
Setaria faberi (SETFA)
  percentage damage caused to the plant, POST Application SETFA: 5 (5=80-100%)
  percentage damage caused to the plant, PRE Application SETFA: 5 (5=80-100%)
[3]
  percentage damage caused to the plant, POST Application AMARE: 5 (5=80-100%)
  percentage damage caused to the plant, PRE Application AMARE: 5 (5=80-100%)
[4]
  percentage damage caused to the plant, POST Application IPOHE: 4 (4=60-79%)
  percentage damage caused to the plant, PRE Application IPOHE: 3 (3=40-59%)

## CN(c1c(OC(F)(F)F)ccc(C(=O)Nc2nnnn2C)c1Cl)S(C)(=O)=O [Compound 1.077]
[1]
  percentage damage caused to the plant, POST Application AMAPA: 5 (5=80-100%)
  percentage damage caused to the plant, PRE Application AMAPA: 5 (5=80-100%)
[2]
  percentage damage caused to the plant, PRE Application ECHCG: 5 (5=80-100%)
Setaria faberi (SETFA)
  percentage damage caused to the plant, POST Application SETFA: 5 (5=80-100%)
  percentage damage caused to the plant, PRE Application SETFA: 5 (5=80-100%)
[3]
  percentage damage caused to the plant, POST Application AMARE: 5 (5=80-100%)
  percentage damage caused to the plant, PRE Application AMARE: 5 (5=80-100%)
[4]
  percentage damage caused to the plant, POST Application IPOHE: 4 (4=60-79%)
  percentage damage caused to the plant, PRE Application IPOHE: 4 (4=60-79%)
